Values quoted from earlier work, collected in US20110294879A1, “METHOD OF TREATMENT OF FRAGILE X SYNDROME, DOWN'S SYNDROME, AUTISM AND RELATED DISORDERS” (XENOPORT, INC., priority 2010, published 2011).

Legend:
[1] = humans
[2] = test system: autistic children
[3] = test system: subjects with FXS and comorbid autistic disorder
[4] = test system: Fmr KO mice; details: Bear et al patents

CC(=O)NCCCS(=O)(=O)O [acamprosate, 3-(Acetylamino)propylsulfonic acid]
oral bioavailability [1]: about 11%

Cc1nc2n(c(=O)c1CCN1CCC(c3noc4cc(F)ccc34)CC1)CCCC2 [risperidone]
social isolation and communication [2]: not improved | irritability subscale of the Aberrant Behavior Checklist and Clinical Global Impressions-Improvement ([2]; McCracken et al 2002): significant improvement

CC(=O)NCCCS(=O)(=O)O [CAMPRAL, acamprosate calcium]
adverse GI events ([3]; fragile X subjects treated in the study): observed in the majority of fragile X subjects | Clinical Global Impression (CGI-I) ([3]; subjects with FXS and comorbid autistic disorder, Erickson et al 2010): significant symptomatic improvements

Cc1cccc(C#Cc2ccccc2)n1 [MPEP, 2-methyl-6-(phenylethynyl)-pyridine]
behavioral and developmental phenotypes [4]: reverse behavioral and developmental phenotypes
